The record followed here is paper PMC4245091, “Novel Virtual Screening Approach for the Discovery of Human Tyrosinase Inhibitors” (PLoS ONE, 2014).

The target of the test is T1, Mushroom tyrosinase.
T1 construct: gene PPO1; commercial native mushroom preparation (Sigma-Aldrich)
Briefly: L-tyrosine to dopachrome, absorbance at […] nm. The class given is biochemical. Conditions: L-tyrosine 0.2 mg/ml; 2 µg/ml enzyme; 100 mM phosphate pH 6.8; 5% ethanol; 25 °C; 30 min.

As usually defined, the IC50 is the concentration needed to halve the response being measured. Read a low IC50 as higher potency. The compound `CC(C)c1ccc(C(=O)CC(Sc2ccc(Cl)cc2)C(=O)O)cc1` (stereo not shown) [Lead1] registered a concentration for half-maximal inhibition (IC50) of 8 µM.
